In PMC10174618, “Monoterpenoid aryl hydrocarbon receptor allosteric antagonists protect against ultraviolet skin damage in female mice” (Nature Communications, 2023):

Tests used:
Assay in all cases: biochemical
Design in all cases: KINOMEscan scanMAX active site-directed competition binding assay, percent of control, 468 kinases
Settings in all cases: competition binding, percent of control
[1] = molecular target: HIPK4 (Homo sapiens, UniProt Q8NE63)
In short: (§1)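 Single-concentration screen (100 μM S-carvone) in a competition binding panel of 468 human kinases (KINOMEscan scanMAX); results given as percent of control, hit cutoff 35%.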

[2] = molecular target: AKT3 (Homo sapiens, UniProt Q9Y243)
In short: as §1

[3] = molecular target: ACVRL1 (Homo sapiens, UniProt P37023)
In short: as §1

[4] = molecular target: RIOK1 (Homo sapiens, UniProt Q9BRS2)
In short: as §1

[5] = molecular target: T1, CTK (Homo sapiens, UniProt P42679)
T1 construct: gene MATK
In short: as §1

[6] = molecular target: BLK (Homo sapiens, UniProt P51451)
In short: as §1

[7] = molecular target: T2, RSK4(Kin.Dom.1-N-terminal) (Homo sapiens, UniProt Q9UK32)
T2 construct: gene RPS6KA6; Kin.Dom.1-N-terminal
In short: as §1

[8] = molecular target: WNK4 (Homo sapiens, UniProt Q96J92)
In short: as §1

[9] = molecular target: T3, YANK2 (Homo sapiens, UniProt Q9NY57)
T3 construct: gene STK32B
In short: as §1

[10] = molecular target: PRKX (Homo sapiens, UniProt P51817)
In short: as §1

[11] = molecular target: PAK3 (Homo sapiens, UniProt O75914)
In short: as §1

[12] = molecular target: T4, QSK (Homo sapiens, UniProt Q9Y2K2)
T4 construct: gene SIK3
In short: as §1

[13] = molecular target: LRRK2(G2019S) (Homo sapiens, UniProt Q5S007, G2019S)
In short: as §1

[14] = molecular target: T5, RSK1(Kin.Dom.1-N-terminal) (Homo sapiens, UniProt Q15418)
T5 construct: gene RPS6KA1; Kin.Dom.1-N-terminal
In short: as §1

[15] = molecular target: INSRR (Homo sapiens, UniProt P14616)
In short: as §1

[16] = molecular target: RIPK2 (Homo sapiens, UniProt O43353)
In short: as §1

[17] = molecular target: EGFR(S752-I759del) (Homo sapiens, UniProt P00533, DEL752-759)
In short: as §1

[18] = molecular target: NEK10 (Homo sapiens, UniProt Q6ZWH5)
In short: as §1

[19] = molecular target: T6, RPS6KA5(Kin.Dom.2-C-terminal) (Homo sapiens, UniProt O75582)
T6 construct: Kin.Dom.2-C-terminal
In short: as §1

[20] = molecular target: RIPK1 (Homo sapiens, UniProt Q13546)
In short: as §1

[21] = molecular target: ERBB4 (Homo sapiens, UniProt Q15303)
In short: as §1

Sequence of PAK3 (O75914 whole entry): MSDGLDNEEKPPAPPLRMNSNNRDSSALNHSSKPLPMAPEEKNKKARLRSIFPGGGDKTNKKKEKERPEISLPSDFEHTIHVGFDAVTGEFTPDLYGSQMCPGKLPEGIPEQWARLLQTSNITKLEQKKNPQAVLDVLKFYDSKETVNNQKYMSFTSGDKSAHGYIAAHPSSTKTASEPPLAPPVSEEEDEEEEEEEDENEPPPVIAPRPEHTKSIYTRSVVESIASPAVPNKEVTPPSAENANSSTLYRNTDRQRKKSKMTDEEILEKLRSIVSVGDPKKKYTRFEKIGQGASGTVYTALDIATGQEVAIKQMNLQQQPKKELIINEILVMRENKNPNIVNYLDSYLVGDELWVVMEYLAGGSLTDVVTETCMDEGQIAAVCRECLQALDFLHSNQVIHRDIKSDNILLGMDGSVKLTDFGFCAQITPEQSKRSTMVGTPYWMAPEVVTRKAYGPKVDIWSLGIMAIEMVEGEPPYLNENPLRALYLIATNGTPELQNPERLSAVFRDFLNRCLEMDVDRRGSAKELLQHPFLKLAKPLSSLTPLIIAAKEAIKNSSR
Sequence of ACVRL1 (P37023 whole entry): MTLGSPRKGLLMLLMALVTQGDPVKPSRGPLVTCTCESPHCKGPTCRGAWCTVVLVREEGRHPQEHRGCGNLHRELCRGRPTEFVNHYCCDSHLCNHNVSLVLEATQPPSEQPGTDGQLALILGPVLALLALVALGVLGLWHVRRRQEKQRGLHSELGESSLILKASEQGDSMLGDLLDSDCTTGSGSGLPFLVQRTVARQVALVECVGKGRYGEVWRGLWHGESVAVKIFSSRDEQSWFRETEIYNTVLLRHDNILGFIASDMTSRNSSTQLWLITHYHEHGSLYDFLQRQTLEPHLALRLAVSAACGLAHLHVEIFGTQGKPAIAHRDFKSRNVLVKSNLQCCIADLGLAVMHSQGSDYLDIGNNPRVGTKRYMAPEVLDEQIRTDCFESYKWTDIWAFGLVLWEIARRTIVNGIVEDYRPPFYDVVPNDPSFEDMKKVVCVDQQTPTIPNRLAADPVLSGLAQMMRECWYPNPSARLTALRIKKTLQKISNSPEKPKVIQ
Sequence of EGFR(S752-I759del) (P00533 with tags, fused parts or gaps DEL752-759): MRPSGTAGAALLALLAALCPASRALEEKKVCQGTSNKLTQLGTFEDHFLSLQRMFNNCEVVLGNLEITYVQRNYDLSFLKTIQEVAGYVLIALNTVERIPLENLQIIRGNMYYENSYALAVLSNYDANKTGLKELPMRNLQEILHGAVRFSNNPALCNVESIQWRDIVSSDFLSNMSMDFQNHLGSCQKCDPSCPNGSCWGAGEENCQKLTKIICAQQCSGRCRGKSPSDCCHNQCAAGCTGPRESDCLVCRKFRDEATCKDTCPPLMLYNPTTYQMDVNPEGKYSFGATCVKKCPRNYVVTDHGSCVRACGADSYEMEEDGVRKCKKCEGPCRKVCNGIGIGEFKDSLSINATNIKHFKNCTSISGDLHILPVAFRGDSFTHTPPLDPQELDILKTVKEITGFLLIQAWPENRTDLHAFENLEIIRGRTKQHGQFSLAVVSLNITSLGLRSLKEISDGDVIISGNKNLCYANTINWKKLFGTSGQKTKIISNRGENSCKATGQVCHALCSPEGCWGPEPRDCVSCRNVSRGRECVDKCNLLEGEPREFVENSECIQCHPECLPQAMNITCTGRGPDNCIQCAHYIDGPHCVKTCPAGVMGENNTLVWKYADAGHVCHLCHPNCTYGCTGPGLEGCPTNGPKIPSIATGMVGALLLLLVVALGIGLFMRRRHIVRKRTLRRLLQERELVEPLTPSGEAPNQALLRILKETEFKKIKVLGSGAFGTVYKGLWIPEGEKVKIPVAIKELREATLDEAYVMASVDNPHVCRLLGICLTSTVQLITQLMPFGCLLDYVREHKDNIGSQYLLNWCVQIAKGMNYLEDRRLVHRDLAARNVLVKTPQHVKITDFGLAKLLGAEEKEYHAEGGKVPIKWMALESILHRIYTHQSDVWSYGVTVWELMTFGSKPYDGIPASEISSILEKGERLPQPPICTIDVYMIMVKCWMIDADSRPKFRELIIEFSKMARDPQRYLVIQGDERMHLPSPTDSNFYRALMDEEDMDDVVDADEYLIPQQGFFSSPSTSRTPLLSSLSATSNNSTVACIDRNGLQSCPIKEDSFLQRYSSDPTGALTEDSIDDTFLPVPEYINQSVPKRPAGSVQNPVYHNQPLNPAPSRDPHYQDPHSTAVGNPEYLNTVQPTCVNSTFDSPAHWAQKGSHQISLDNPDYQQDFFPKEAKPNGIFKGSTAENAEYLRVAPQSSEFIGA
Sequence of ERBB4 (Q15303 whole entry): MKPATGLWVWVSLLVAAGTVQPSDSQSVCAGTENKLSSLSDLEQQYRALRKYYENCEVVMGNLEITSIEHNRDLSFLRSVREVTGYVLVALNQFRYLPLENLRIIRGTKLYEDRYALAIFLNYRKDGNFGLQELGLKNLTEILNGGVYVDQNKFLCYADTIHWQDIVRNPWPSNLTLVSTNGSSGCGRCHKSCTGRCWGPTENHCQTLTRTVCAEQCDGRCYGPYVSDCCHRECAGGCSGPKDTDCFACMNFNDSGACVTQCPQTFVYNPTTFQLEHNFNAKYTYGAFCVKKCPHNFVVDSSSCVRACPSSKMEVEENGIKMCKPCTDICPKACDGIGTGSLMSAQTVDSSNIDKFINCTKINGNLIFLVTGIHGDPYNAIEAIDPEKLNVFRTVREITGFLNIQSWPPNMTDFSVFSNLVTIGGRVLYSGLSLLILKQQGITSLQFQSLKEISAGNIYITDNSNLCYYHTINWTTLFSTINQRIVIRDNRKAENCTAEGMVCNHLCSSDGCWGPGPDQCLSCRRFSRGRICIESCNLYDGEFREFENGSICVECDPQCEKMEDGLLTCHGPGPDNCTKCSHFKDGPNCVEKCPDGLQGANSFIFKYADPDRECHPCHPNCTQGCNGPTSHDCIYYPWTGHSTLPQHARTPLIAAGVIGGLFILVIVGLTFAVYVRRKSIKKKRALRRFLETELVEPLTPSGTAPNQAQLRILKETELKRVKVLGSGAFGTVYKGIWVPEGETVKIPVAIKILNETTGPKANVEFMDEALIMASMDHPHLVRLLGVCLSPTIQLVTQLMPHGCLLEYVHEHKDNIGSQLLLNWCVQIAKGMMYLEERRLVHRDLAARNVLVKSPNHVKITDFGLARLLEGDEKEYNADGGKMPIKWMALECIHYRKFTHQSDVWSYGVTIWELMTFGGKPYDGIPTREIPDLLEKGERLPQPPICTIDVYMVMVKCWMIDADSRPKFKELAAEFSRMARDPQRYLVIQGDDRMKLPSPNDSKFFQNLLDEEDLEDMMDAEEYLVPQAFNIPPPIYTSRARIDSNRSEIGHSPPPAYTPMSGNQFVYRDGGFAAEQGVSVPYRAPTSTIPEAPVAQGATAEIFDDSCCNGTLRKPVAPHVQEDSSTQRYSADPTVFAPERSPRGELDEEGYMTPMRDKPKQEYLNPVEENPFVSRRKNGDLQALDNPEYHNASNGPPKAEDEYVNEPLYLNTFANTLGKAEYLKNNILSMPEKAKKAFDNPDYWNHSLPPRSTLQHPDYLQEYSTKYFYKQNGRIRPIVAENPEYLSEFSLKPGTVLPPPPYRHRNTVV
Sequence of BLK (P51451 whole entry): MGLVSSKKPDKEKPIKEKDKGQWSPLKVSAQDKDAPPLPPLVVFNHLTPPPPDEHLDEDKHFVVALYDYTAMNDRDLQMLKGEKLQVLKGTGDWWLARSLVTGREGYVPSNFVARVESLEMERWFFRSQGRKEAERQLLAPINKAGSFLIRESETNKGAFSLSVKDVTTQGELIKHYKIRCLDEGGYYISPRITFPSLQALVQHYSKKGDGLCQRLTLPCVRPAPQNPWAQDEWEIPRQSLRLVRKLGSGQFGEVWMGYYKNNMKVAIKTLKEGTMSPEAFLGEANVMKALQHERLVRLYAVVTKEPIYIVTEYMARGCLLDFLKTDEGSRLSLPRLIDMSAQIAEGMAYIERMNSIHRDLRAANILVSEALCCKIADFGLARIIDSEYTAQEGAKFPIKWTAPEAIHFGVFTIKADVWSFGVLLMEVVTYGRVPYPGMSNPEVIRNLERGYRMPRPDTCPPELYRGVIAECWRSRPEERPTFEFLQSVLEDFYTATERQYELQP
T2 sequence (Q9UK32 whole entry): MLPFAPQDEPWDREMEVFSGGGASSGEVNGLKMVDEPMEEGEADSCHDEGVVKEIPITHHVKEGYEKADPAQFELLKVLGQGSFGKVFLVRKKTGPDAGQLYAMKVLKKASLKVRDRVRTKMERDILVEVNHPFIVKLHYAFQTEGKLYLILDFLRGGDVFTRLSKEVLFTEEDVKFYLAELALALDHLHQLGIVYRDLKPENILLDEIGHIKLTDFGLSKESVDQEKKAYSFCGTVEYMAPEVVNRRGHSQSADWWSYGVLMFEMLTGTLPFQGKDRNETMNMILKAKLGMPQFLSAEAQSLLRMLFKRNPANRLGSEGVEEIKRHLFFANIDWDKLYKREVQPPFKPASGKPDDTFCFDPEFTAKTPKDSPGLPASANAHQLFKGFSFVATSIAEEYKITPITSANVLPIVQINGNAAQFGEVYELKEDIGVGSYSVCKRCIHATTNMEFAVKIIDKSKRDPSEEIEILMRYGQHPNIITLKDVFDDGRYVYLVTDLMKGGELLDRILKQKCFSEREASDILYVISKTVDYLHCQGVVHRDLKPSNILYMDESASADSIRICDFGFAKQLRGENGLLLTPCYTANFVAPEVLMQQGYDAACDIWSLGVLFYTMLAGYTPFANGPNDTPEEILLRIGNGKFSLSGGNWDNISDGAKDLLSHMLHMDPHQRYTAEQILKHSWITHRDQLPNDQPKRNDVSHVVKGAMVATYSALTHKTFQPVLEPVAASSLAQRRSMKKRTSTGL

C=C(C)[C@H]1CC=C(C)C(=O)C1 [S-carvone]
remaining binding at 100 µM [1]: 66% | remaining binding at 100 µM [2]: 90% | remaining binding at 100 µM [3]: 88% | remaining binding at 100 µM [4]: 100% | remaining binding at 100 µM [5]: 75% | remaining binding at 100 µM [6]: 80% | remaining binding at 100 µM [7]: 63% | remaining binding at 100 µM [8]: 77% | remaining binding at 100 µM [9]: 79% | remaining binding at 100 µM [10]: 100% | remaining binding at 100 µM [11]: 78% | remaining binding at 100 µM [12]: 89% | remaining binding at 100 µM [13]: 81% | remaining binding at 100 µM [14]: 91% | remaining binding at 100 µM [15]: 84% | remaining binding at 100 µM [16]: 97% | remaining binding at 100 µM [17]: 66% | remaining binding at 100 µM [18]: 71% | remaining binding at 100 µM [19]: 85% | remaining binding at 100 µM [20]: 87% | remaining binding at 100 µM [21]: 81%
